Experiments:
[1] = increasing astaxanthin levels in the diet (experiments conducted with the invention); format: in vivo
Description: In experiments conducted with the present invention, it is been shown that increasing astaxanthin levels in the diet can be used as a pre-cancer, cancer and anti-inflammatory prophylactic at levels up to 400 mg per day.

[2] = cited from earlier work
[3] = relative to betacarotene; cited from earlier work
[4] = oral; cited from earlier work

feces colour ([1]; up to 400 mg per day, from unabsorbed astaxanthin): some decolorization of feces
Structure (SMILES): CC1=C(/C=C/C(C)=C/C=C/C(C)=C/C=C/C=C(C)/C=C/C=C(C)/C=C/C2=C(C)C(=O)[C@@H](O)CC2(C)C)C(C)(C)C[C@H](O)C1=O [astaxanthin]
side effects ([1]; dietary levels up to 400 mg per day): No discernible side effects | side effects or skin color changes ([1]; treatment of greater than 50 mg per day): No side effects or skin color changes were observed | anti-inflammatory effect and pain reduction associated with arthritis ([1]; within four weeks of treatment of greater than 50 mg per day): Anti-inflammatory and pain reduction associated with arthritis were noted | singlet oxygen quenching, times stronger than CoQ10 ([2]; relative to CoQ10): 800 times | singlet oxygen quenching, times stronger than vitamin C ([2]; relative to vitamin C): 6000 times | singlet oxygen quenching, times stronger than vitamin E ([2]; relative to vitamin E): 550 times | times more reactive as an antioxidant than betacarotene [3]: 400 times | toxic side effects [4]: No toxic side effects have been observed

— patent US11065269B1, “Method of using astaxanthin for the treatment of diseases, and more particularly, the treatment of cancer” (priority 2018, dated 2021)
